# Laboratory results reported in patent publication US8772347B2, “Use of a pharmaceutical composition for promoting proliferation and/or migration of skin cells, and for improving wound healing in a subject” (Kaohsiung Medical University, priority 2011, dated 2014).
# Assays:
# human fibroblasts [1] = assay: MTT assay, proliferation of skin cells; assay type: cell-based; conditions: for proliferation of human fibroblasts compared with control: 24 hr, MTT, FIG. 2(A)
# Method: (§1) Skin cells are cultured following the method provided in Exp Dermatol 2011; 20: 242-8. Human skin fibroblasts are derived from Chung-Ho Memorial Hospital, Kaohsiung Medical University, Taiwan, ROC, and incubated in Dulbecco's Modified Eagle Medium including 10% fetal calf serum, 100 μg/ml streptomycin, and 250 ng/ml amphotericin B. Human keratinocytes are isolated from foreskin primary culture and cultured in Keratinocyte-SFM Medium supplemented with Bovine Pituitary Extract and EGF. All of these cells are incubated at 37° C. in a humidified incubator with 5% CO2 atmosphere.
# (§2) 3-(4,5-cimethylthiazol-2-yl)-2,5-diphenyl tetrazolium bromide assay (MTT assay) is performed to analyze the effect on the proliferation of skin cells treated with different 6-DG concentration (dissolved in DMSO). Firstly, 6-DG of different concentration is seeded in a 96-well culture dish cultured with skin cells and incubated for 24 hr. MIT solution (5 mg/ml, dissolved in PBS) is added into the dish and incubated again at 37° C. for 2 hr. Medium in the dish is removed, 0.05 ml DMSO is added to the dish, and then the dish is shaken in a dark position for 20 min. Finally, the OD value of each well of the dish is calculated by 595 nm-wavelength light (UV-vis, BioTek, USA). Considering whether DMSO has effect on the skin cell proliferation or not, skin cells treated with DMSO are used as a control.
# human keratinocytes [2] = assay: MTT assay, proliferation of skin cells; assay type: cell-based; conditions: 24 hr, FIG. 2(B)
# Method: as §1, §2
# PDGF-αβ [3] = assay: ELISA, growth factor expression in conditioned medium of fibroblasts; assay type: cell-based, human; conditions: 24 hr, medium supernatant, mean ± SD
# Method: as §1
# (§3) Enzyme-linked immunoassay (ELISA) is performed to analyze the effect on the growth factor expression of skin cells treated with different 6-DG concentration (dissolved in DMSO). Firstly, 6-DG of different concentration is incubated in a 6-well culture dish with skin cells cultured in a conditioned medium for 24 hr. Supernant of the conditioned medium is collected for analyzing the concentration of TGF-β, VEGF, and PDGF-αβ following the directions provided by DuoSet ELISA development kits (R&D Systems, USA). With regard to whether DMSO has effect on the growth factor expression or not, skin cells treated with DMSO are used as a control.
# TGF-β [4] = assay: as above; assay type: cell-based, human; conditions: 24 hr, medium supernatant, mean ± SD
# Method: as §1, §3
# VEGF [5] = assay: as above; assay type: cell-based, human; conditions: 24 hr, medium supernatant, mean ± SD
# Method: as §1, §3
# PDGF-αβ [6] = assay: ELISA, growth factor expression in conditioned medium of keratinocytes; assay type: cell-based, human; conditions: 24 hr, medium supernatant, mean ± SD
# Method: as §1, §3
# TGF-β [7] = assay: as above; assay type: cell-based, human; conditions: 24 hr, medium supernatant, mean ± SD
# Method: as §1, §3
# VEGF [8] = assay: as above; assay type: cell-based, human; conditions: 24 hr, medium supernatant, mean ± SD
# Method: as §1, §3
# human fibroblasts [9] = assay: Migration of skin cells into wound area (scratch assay, TScratch); assay type: cell-based
# Method: as §1
# (§4) An assay disclosed in Process Biochemistry 2010; 45:1865-72 is performed to analyze the effect on migration of skin cells treated with different 6-DG concentration (dissolved in DMSO). 5×10^5 skin cells are seeded in a 12-well culture dish and grown to complete confluence. Prior to adding 6-DG of different concentration to the dish, a clean […] would area is created on the skin cells. The wound area is photographed using an inverted phase-contrast microscopy (TE2000-U; Nikon, Tokyo, Japan) equipped with NIS-Elements software (Nikon), and the skin cell migration in the wound area is calculated by the free software “TScratch” (www.cse-lab.ethz.ch/software.html). Considering whether DMSO has effect on the skin cell migration or not, skin cells treated with 0.5% DMSO are used as a control.
# human keratinocytes [10] = assay: as above; assay type: cell-based
# Method: as §1, §4
# MMP-1 [11] = assay: Western blotting, human fibroblasts; assay type: cell-based; conditions: compared with cells only treated with PMA
# Method: (§5) Signal transduction of skin cells treated with 6-DG is studied. Firstly, 6-DG of different concentration is incubated with 1×10^6 human fibroblasts. After being incubated for 24 hr, the human fibroblasts are washed twice with phosphate-buffered saline (PBS), and then lysed by a lysis buffer containing 50 mM Tris-HCl, pH7.5, 137 mM sodium chloride, 1 mM EDTA, 1% Nonidet P-40, 10% glycerol, 0.1 mM sodium orthovanadate, 10 mM sodium pyrophosphate, 20 mM β-glycerophosphate, 50 mM sodium fluoride, 1 mM phenylmethysulfonyl fluoride, 2 mM leupeptin, and 2 μg/ml aprotinin. A cell extract having the lysed human fibroblasts is separated by a centrifugal force of 10,000 g at 4° C., and supernant of the cell extract is collected for determining protein concentration using Bicinchoninic acid protein assay kit (Pierce, Rockford, Ill., USA). Equal concentration of protein in the supernant is separated by SDS-PAGE, and then blotted to a PVDF membrane (PALL Life Science, Ann Arbor, Mich., USA). After being blocked for 1 hr in phosphate-buffered saline & tween (PBST) containing 5% non-fat milk, primary antibodies are added to the membrane. The membrane is washed with PBST twice, and next secondary antibodies against the primary antibodies are added to the membrane. Finally, signals on the membrane are visualized by enhanced chemiluminescence substrate (PerkinElmer, USA). As the description of “BACKGROUND OF THE INVENTION,” it is said that PMA, an activator for protein kinase C, phosphorylates JNK and ERK to produce MMP-1 and inhibits TIMP-1. For further confirming the effect on signal transduction of skin cells treated with 6-DG, the human fibroblasts are incubated with 20 ng/ml PMA prior to being treated with 6-DG.
# TIMP-1 = assay: Western blotting, human fibroblasts; assay type: cell-based
# Method: as §5
# c-Jun and ERK = assay: Western blotting, human fibroblasts, phosphorylation; assay type: cell-based; conditions: compared with cells only treated with PMA
# Method: Signal transduction of skin cells treated with 6-DG is studied. Firstly, 6-DG of different concentration is incubated with 1×10^6 human fibroblasts. After being incubated for 24 hr, the human fibroblasts are washed twice with phosphate-buffered saline (PBS), and then lysed by a lysis buffer containing 50 mM Tris-HCl, pH7.5, 137 mM sodium chloride, 1 mM EDTA, 1% Nonidet P-40, 10% glycerol, 0.1 mM sodium orthovanadate, 10 mM sodium pyrophosphate, 20 mM β-glycerophosphate, 50 mM sodium fluoride, 1 mM phenylmethysulfonyl fluoride, 2 mM leupeptin, and 2 μg/ml aprotinin. A cell extract having the lysed human fibroblasts is separated by a centrifugal force of 10,000 g at 4° C., and supernant of the cell extract is collected for determining protein concentration using Bicinchoninic acid protein assay kit (Pierce, Rockford, Ill., USA). Equal concentration of protein in the supernant is separated by SDS-PAGE, and then blotted to a PVDF membrane (PALL Life Science, Ann Arbor, Mich., USA). After being blocked for 1 hr in phosphate-buffered saline & tween (PBST) containing 5% non-fat milk, primary antibodies are added to the membrane. The membrane is washed with PBST twice, and next secondary antibodies against the primary antibodies are added to the membrane. Finally, signals on the membrane are visualized by enhanced chemiluminescence substrate (PerkinElmer, USA). […]
# collagen = assay: Sirius red collagen staining, human fibroblasts; assay type: cell-based; conditions: for collagen expression level of fibroblasts: FIG. 5(B); for collagen expression level per human fibroblast: FIG. 5(C)
# Method: Sirius red collagen staining is performed to analyze the effect on the collagen expression of skin cells treated with 6-DG 6-DG of different concentration is added to a 24-well culture dish cultured with human fibroblasts. Medium in the dish is removed and the fibroblasts are washed with PBS twice. 100 μl Sirius Red is added to each well of the dish and incubated at room temperature for 1 hr. After removing the unstained Sirius Red, the fibroblasts are washed with 100 μl 0.1N HCl for at least five times, and then 100 μl 0.1N NaOH is used to extract the stained Sirius Red. Finally, the OD value of the extracted stained Sirius Red is calculated by 540 nm-wavelength light. As the described in “BACKGROUND OF THE INVENTION,” it is said that PMA, an activator for protein kinase C, phosphorylates JNK and ERK to produce MMP-1, and inhibits TIMP-1. With regard to the effect on the collagen expression of skin cells treated with 6-DG, the human fibroblasts are incubated with 20 ng/ml PMA prior to being incubated with 6-DG.
# human fibroblasts [12] = assay: Proliferation of human fibroblasts with or without PMA (FIG. 5(A)); assay type: cell-based
# MMP-1 [13] = assay: Collagen zymography, MMP-1 activity of human fibroblasts; assay type: cell-based
# Method: Collagen zymography is performed to analyze the effect on the MMP-1 activity of skin cells treated with 6-DG. After electrophoresis of the foregoing lysed cell extract in SDS-PAGE containing 0.1% collagen, the SDS-PAGE is reacted with 2.5% Triton X-100 to remove SDS and make the protein of the lysed extract folded, and then incubated with a Tris-base buffer containing NaCl, CaCl2, and ZnCl2. Finally, this gel is stained with Coomassie Brilliant Blue R250, and the signal at 52 kDa […] position on the gel is calculated by Gel Pro v4.0 software (Media Cybernetics, Silver Spring, Md., USA).
# “BACKGROUND OF THE INVENTION” of the content is said that PMA, an activator for protein kinase C, phosphorylates JNK and ERK to produce MMP-1, and inhibits TIMP-1. For confirming the effect on the MMP-1 activity of skin cells treated with 6-DG, the human fibroblasts are incubated with 20 ng/ml PMA prior to being treated with 6-DG.
# [14] = skin cells (fibroblasts and keratinocytes), based on the volume of the composition
# [15] = 20 ng/ml PMA prior to 6-DG, compared with PMA only
# [16] = 6-DG, compared with untreated (control) and PMA only
smiles,measurement,setting,value
"CCCCCC(=O)/C=C(O)/C=C/c1ccc(O)c(OC)c1 [6-DG, 6-dehydrogingerdione]",proliferation of human fibroblasts compared with control,human fibroblasts [1]; 2 μM 6-DG,obviously proliferated
same,proliferation of human fibroblasts compared with control,human fibroblasts [1]; 50 μM 6-DG,obviously proliferated
same,proliferation of human fibroblasts compared with control,human fibroblasts [1]; 100 μM 6-DG,not obviously proliferated
same,effective concentration for promoting skin cell proliferation,human fibroblasts [1]; [14],2 to 50 µM
same,proliferation of human keratinocytes compared with control,human keratinocytes [2]; 2 μM 6-DG,obviously proliferated
same,proliferation of human keratinocytes compared with control,human keratinocytes [2]; 50 μM 6-DG,obviously proliferated
same,proliferation of human keratinocytes compared with control,human keratinocytes [2]; 100 μM 6-DG,not obviously proliferated
same,PDGF-αβ,PDGF-αβ [3]; 6-DG 2 μM,7.1 ± 0.1 pg/mL
same,PDGF-αβ,PDGF-αβ [3]; 6-DG 10 μM,5.3 ± 0.1 pg/mL
same,TGF-β,TGF-β [4]; 6-DG 2 μM,984.5 ± 21.6 pg/mL
same,TGF-β,TGF-β [4]; 6-DG 10 μM,1003.3 ± 24.0 pg/mL
same,VEGF,VEGF [5]; 6-DG 2 μM,432.0 ± 14.6 pg/mL
same,VEGF,VEGF [5]; 6-DG 10 μM,294.5 ± 14.6 pg/mL
same,PDGF-αβ,PDGF-αβ [6]; 6-DG 2 μM,5.84 ± 0.2 pg/mL
same,PDGF-αβ,PDGF-αβ [6]; 6-DG 10 μM,4.55 ± 0.1 pg/mL
same,TGF-β,TGF-β [7]; 6-DG 2 μM,822.8 ± 15.3 pg/mL
same,TGF-β,TGF-β [7]; 6-DG 10 μM,768.0 ± 9.6 pg/mL
same,VEGF,VEGF [8]; 6-DG 2 μM,344.3 ± 9.5 pg/mL
same,VEGF,VEGF [8]; 6-DG 10 μM,292.8 ± 7.3 pg/mL
same,migration of human fibroblasts to the wound area,human fibroblasts [9]; 2 μM 6-DG for 24 hr,more obvious
same,migration of human fibroblasts to the wound area,"human fibroblasts [9]; 10 μM 6-DG, compared with 2 μM",less obvious than that after being treated with 2 μM
same,effective concentration for promoting migration of skin cells,human fibroblasts [9]; [14],2 to 50 µM
same,migration of human fibroblasts to the wound area compared with control,"human fibroblasts [9]; treated with 6-DG, FIGS. 3(A)-3(B)",obviously migrate to the wound area
same,migration of human keratinocytes to the wound area,human keratinocytes [10]; 2 μM 6-DG for 24 hr,more obvious
same,migration of human keratinocytes to the wound area,"human keratinocytes [10]; 10 μM 6-DG, compared with 2 μM",less obvious than that after being treated with 2 μM
same,migration of human keratinocytes to the wound area compared with control,"human keratinocytes [10]; treated with 6-DG, FIGS. 3(C)-3(D)",obviously migrate to the wound area
same,expression level of MMP-1,MMP-1 [11]; 20 ng/ml PMA prior to 6-DG,down-regulated expression level of MMP-1
same,expression level of MMP-1,MMP-1 [11]; 6-DG,down-regulated expression level of MMP-1
same,expression of TIMP-1,"TIMP-1; 6-DG 24 hr, compared with fibroblasts untreated",up-regulate the expression of TIMP-1
same,expression level of TIMP-1,"TIMP-1; 6-DG, compared with cells only treated with PMA",up-regulated expression level of TIMP-1
same,phosphorylation level of c-Jun and ERK,c-Jun and ERK; 20 ng/ml PMA prior to 6-DG,less phosphorylation level of c-Jun and ERK
same,phosphorylation level of c-Jun and ERK,c-Jun and ERK; 6-DG,less phosphorylation level of c-Jun and ERK
same,collagen expression level of fibroblasts,collagen; [15],still have up-regulated expression of collagen
same,collagen expression level per human fibroblast,collagen; [15],still has up-regulated expression of collagen
same,collagen expression level of fibroblasts,collagen; [16],up-regulated expression of collagen
same,collagen expression level per human fibroblast,collagen; [16],up-regulated expression of collagen
same,proliferation of fibroblasts,human fibroblasts [12]; [15],still have obvious proliferation
same,proliferation of fibroblasts,human fibroblasts [12]; [16],obvious proliferation
same,activity of MMP-1,"MMP-1 [13]; 20 ng/ml PMA prior to 6-DG, compared with fibroblasts only treated with PMA",lower activity of MMP-1
same,activity of MMP-1,"MMP-1 [13]; 6-DG, compared with fibroblasts only treated with PMA",lower MMP-1 activity
same,activity of MMP-1,"MMP-1 [13]; 6-DG, compared with fibroblasts untreated, FIGS. 6(A)-6(B)",no obvious difference
